From patent US8063220B2, “Sulfonyl-quinoline derivatives” (Richter Gedeon Nyrt., priority 2007, dated 2011)
pKi: −log10 of the molar value.

Tests used:
rat mGluR1 = target: T1, rat mGluR1 (Rattus norvegicus, UniProt P23385); assay: MGluR1 receptor binding test ([3H]R214127 displacement, rat cerebellar membrane preparation); conditions: rat mGluR1, [3H]R214127 3 nM; read-out: mGlu1 Ki
T1 construct: rat cerebellar membrane preparation was used; from tissue; host or cells: rat cerebellum (membrane preparation)
Outline: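 Rat cerebellar membranes with 3 nM [3H]R214127; nonspecific binding defined by 1 μM R214127. IC50 from displacement curves by nonlinear regression, converted to Ki by Cheng–Prusoff.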

rat mGluR5 = target: T2, rat mGluR5 (Rattus norvegicus, UniProt P31424); assay: MGluR5 receptor binding test ([3H]-M-MPEP displacement, rat cerebro-cortical membrane preparation); conditions: rat mGluR5, [3H]-M-MPEP 2 nM; read-out: mGlu5 Ki
T2 construct: Rat cerebro-cortical membrane preparation was used; from tissue; host or cells: rat cerebral cortex (membrane preparation)
Protocol: Rat cerebro-cortical membrane preparation was used to determine the binding characteristics of reference compounds and novel compounds to the rat mGluR5. The A18 cell line expressing hmGluR5a (purchased from Euroscreen) was used to determine binding characteristics of the chemical compounds to the human mGluR5a receptor. [3H]-M-MPEP (2 nM) was used as radioligand. The nonspecific binding was determined in the presence of 10 μM M-MPEP.

T1 sequence (P23385 19-1199): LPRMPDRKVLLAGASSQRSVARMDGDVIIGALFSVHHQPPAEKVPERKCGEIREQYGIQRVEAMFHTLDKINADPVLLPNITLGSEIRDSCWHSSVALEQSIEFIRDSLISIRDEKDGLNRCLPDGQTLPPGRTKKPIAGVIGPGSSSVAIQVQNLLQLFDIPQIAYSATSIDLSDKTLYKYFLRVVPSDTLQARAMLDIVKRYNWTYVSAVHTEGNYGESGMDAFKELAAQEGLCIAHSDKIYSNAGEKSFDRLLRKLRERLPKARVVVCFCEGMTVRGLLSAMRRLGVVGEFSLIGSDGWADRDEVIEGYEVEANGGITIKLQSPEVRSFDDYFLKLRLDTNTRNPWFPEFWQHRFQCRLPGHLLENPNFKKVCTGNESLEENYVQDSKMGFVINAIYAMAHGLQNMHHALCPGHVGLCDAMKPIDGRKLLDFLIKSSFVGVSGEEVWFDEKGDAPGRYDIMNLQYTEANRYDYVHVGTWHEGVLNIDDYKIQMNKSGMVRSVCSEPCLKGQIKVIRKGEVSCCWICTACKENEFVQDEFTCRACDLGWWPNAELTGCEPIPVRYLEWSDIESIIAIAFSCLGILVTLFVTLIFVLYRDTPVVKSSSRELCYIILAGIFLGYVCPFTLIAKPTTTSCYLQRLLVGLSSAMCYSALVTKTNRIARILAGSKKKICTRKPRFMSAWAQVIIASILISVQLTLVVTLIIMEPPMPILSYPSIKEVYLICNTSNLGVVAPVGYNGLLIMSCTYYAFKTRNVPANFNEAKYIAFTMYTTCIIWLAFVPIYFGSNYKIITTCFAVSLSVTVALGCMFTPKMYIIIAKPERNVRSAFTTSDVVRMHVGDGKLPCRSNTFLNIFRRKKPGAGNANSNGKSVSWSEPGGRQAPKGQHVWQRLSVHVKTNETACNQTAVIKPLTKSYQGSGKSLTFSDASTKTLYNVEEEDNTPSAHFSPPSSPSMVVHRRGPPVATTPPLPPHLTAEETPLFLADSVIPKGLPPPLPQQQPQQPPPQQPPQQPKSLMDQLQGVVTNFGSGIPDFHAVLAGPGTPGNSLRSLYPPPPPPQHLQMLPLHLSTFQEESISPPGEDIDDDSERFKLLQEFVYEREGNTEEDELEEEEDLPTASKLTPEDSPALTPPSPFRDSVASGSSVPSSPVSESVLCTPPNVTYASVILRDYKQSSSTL
T2 sequence (P31424 21-1203): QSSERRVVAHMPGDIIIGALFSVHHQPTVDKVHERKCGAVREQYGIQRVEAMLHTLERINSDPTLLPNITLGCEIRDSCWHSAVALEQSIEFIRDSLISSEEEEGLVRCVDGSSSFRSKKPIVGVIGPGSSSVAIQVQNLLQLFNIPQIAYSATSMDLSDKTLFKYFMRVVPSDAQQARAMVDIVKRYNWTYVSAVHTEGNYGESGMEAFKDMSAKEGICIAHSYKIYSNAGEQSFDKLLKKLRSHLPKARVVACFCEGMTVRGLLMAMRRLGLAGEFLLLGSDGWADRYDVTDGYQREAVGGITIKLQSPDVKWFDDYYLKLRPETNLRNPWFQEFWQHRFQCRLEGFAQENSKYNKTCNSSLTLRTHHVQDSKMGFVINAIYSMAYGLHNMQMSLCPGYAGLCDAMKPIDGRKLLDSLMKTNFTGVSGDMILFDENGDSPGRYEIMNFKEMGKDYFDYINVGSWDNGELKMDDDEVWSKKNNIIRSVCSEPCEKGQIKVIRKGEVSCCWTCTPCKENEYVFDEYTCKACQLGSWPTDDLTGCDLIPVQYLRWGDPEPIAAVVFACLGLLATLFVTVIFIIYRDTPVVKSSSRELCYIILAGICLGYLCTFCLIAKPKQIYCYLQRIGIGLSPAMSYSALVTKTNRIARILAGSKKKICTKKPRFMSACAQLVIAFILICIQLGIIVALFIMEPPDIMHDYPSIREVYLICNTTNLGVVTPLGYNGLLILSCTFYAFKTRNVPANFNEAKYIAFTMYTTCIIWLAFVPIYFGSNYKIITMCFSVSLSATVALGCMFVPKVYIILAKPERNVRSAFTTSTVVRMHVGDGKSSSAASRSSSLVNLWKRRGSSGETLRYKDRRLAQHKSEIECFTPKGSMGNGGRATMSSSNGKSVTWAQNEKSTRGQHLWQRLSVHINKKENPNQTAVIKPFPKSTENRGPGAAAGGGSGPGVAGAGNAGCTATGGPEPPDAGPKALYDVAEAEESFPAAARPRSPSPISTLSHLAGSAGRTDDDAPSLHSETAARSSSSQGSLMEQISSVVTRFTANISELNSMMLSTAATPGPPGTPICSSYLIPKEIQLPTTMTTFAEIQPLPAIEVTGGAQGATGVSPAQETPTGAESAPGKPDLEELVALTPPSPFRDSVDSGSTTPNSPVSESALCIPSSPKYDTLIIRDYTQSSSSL

pKi (rat mGluR1)	pKi (rat mGluR5)	Compound
6.30 to 6.70	> 6.70	O=S(=O)(c1ccc(F)c(Cl)c1)c1cnc2cc(F)ccc2c1-c1ccccc1F [Compound 224]
< 6.30	< 6.30	O=S(=O)(c1ccc(F)cc1)c1cnc2ccc(Cl)cc2c1-c1cccc(Cl)c1 [Compound 3]
6.30 to 6.70	> 6.70	O=S(=O)(c1ccc(F)c(F)c1)c1cnc2c(F)cccc2c1-c1ccc(Cl)cc1 [Compound 120]
< 6.30	6.30 to 6.70	COc1cccc(S(=O)(=O)c2cnc3cc(F)ccc3c2-c2cccc(F)c2)c1 [Compound 95]
6.30 to 6.70	> 6.70	O=S(=O)(c1ccc(F)c(Cl)c1)c1cnc2c(F)cccc2c1-c1ccc(F)cc1 [Compound 212]
6.30 to 6.70	> 6.70	O=S(=O)(c1ccc(F)c(F)c1)c1cnc2cc(F)ccc2c1-c1ccc(F)cc1 [Compound 101, 3-(3,4-difluoro-benzenesulfonyl)-7-fluoro-4-(4-fluoro-phenyl)-quinoline]
< 6.30	< 6.30	O=S(=O)(c1ccc(Cl)cc1)c1cnc2ccc(F)cc2c1-c1ccc(F)cc1 [Compound 31]
> 6.70	> 6.70	O=S(=O)(c1cc(Cl)cc(Cl)c1)c1cnc2c(F)cccc2c1-c1ccc(F)cc1 [Compound 50]
< 6.30	> 6.70	N#Cc1cccc(S(=O)(=O)c2cnc3c(F)cccc3c2-c2cccc(Cl)c2)c1 [Compound 246]
< 6.30	> 6.70	O=S(=O)(c1cc(Cl)cc(Cl)c1)c1cnc2cc(Cl)ccc2c1-c1cccc(F)c1 [Compound 166]
< 6.30	> 6.70	O=S(=O)(c1ccc(F)c(Cl)c1)c1cnc2cc(Cl)ccc2c1-c1cccc(F)c1 [Compound 171]
< 6.30	> 6.70	Cc1ccc(S(=O)(=O)c2cnc3cc(F)ccc3c2-c2ccc(Cl)cc2)cc1C [Compound 45]
> 6.70	> 6.70	N#Cc1cccc(S(=O)(=O)c2cnc3cc(F)ccc3c2-c2cccc(Cl)c2)c1 [Compound 91]
6.30 to 6.70	> 6.70	Nc1ccc2c(-c3cccc(F)c3)c(S(=O)(=O)c3ccc(F)c(F)c3)cnc2c1 [Compound 264, 7-Amino-3-(3,4-difluoro-benzenesulfonyl)-4-(3-fluoro-phenyl)-quinoline]
< 6.30	< 6.30	O=S(=O)(c1ccc(Cl)cc1)c1cnc2ccc(F)cc2c1-c1cccc(Cl)c1 [Compound 8]
6.30 to 6.70	> 6.70	O=S(=O)(c1cc(F)cc(F)c1)c1cnc2cc(F)ccc2c1-c1cccc(F)c1 [Compound 88]
6.30 to 6.70	> 6.70	N#Cc1cc(F)cc(S(=O)(=O)c2cnc3cc(Cl)ccc3c2-c2cccc(F)c2)c1 [Compound 221]
6.30 to 6.70	> 6.70	O=S(=O)(c1cc(F)cc(F)c1)c1cnc2c(F)cccc2c1-c1cccc(Cl)c1 [Compound 115]
< 6.30	> 6.70	Cc1ccc(S(=O)(=O)c2cnc3ccc(F)cc3c2-c2cccc(F)c2)cc1F [Compound 128]
> 6.70	> 6.70	COc1ccc(S(=O)(=O)c2cnc3c(F)cccc3c2-c2ccc(Cl)cc2)cc1 [Compound 54]
< 6.30	> 6.70	O=S(=O)(c1ccc(F)c(Cl)c1)c1cnc2c(F)c(Cl)ccc2c1-c1cccc(F)c1 [Compound 203]

pKi (rat mGluR1)	pKi (rat mGluR5)	Compound
< 6.30	> 6.70	COc1ccc(S(=O)(=O)c2cnc3ccc(F)cc3c2-c2ccc(Cl)cc2)cc1 [Compound 29]
< 6.30	6.30 to 6.70	N#Cc1cccc(S(=O)(=O)c2cnc3cc(C#N)ccc3c2-c2ccc(Cl)cc2)c1 [Compound 191]
< 6.30	< 6.30	O=S(=O)(c1cc(F)cc(F)c1)c1cnc2cc(F)c(Cl)cc2c1-c1ccc(Cl)cc1 [Compound 198]
6.30 to 6.70	> 6.70	O=S(=O)(c1ccc(F)c(Cl)c1)c1cnc2c(F)cccc2c1-c1cccc(F)c1 [Compound 210]
< 6.30	> 6.70	Cc1ccc(S(=O)(=O)c2cnc3ccc(F)cc3c2-c2ccc(Cl)cc2)cc1C [Compound 33]
< 6.30	> 6.70	COc1ccc(S(=O)(=O)c2cnc3c(F)cccc3c2-c2cccc(F)c2)cc1 [Compound 55]
< 6.30	> 6.70	COc1ccc(-c2c(S(=O)(=O)c3ccc(OC)c(Cl)c3)cnc3ccc(F)cc23)cc1 [Compound 74]
> 6.70	> 6.70	O=S(=O)(c1ccc(F)c(Cl)c1)c1cnc2cc(Cl)ccc2c1-c1cc(F)cc(F)c1 [Compound 262]
< 6.30	6.30 to 6.70	O=S(=O)(c1ccc(Cl)cc1)c1cnc2c(Cl)cccc2c1-c1ccc(Cl)cc1 [Compound 5]
< 6.30	> 6.70	N#Cc1cc(S(=O)(=O)c2cnc3ccccc3c2-c2cccc(Cl)c2)ccc1F [Compound 217]
< 6.30	> 6.70	N#Cc1cc(C#N)cc(S(=O)(=O)c2cnc3cc(F)ccc3c2-c2ccc(F)cc2)c1 [Compound 249]
< 6.30	> 6.70	O=S(=O)(c1ccc(F)c(F)c1)c1cnc2cc(F)ccc2c1-c1ccc(Cl)cc1 [Compound 247]
< 6.30	> 6.70	COc1ccc(-c2c(S(=O)(=O)c3cccc(OC)c3)cnc3ccc(F)cc23)cc1 [Compound 145]
> 6.70	> 6.70	N#Cc1cccc(S(=O)(=O)c2cnc3cc(Cl)ccc3c2-c2ccccc2F)c1 [Compound 227]
< 6.30	> 6.70	O=S(=O)(c1cccc(F)c1)c1cnc2cc(F)ccc2c1-c1ccc(Cl)cc1 [Compound 41]
< 6.30	> 6.70	N#Cc1cc(F)cc(S(=O)(=O)c2cnc3ccccc3c2-c2cccc(Cl)c2)c1 [Compound 226]
< 6.30	> 6.70	Cc1ccc(S(=O)(=O)c2cnc3c(F)cccc3c2-c2cccc(F)c2)cc1F [Compound 111]
< 6.30	> 6.70	O=S(=O)(c1ccc(F)cc1)c1cnc2cc(F)ccc2c1-c1ccc(F)cc1 [Compound 40]
6.30 to 6.70	> 6.70	O=S(=O)(c1ccc(F)c(F)c1)c1cnc2ccc(F)cc2c1-c1cccc(F)c1 [Compound 150]
< 6.30	> 6.70	COc1ccc(S(=O)(=O)c2cnc3cc(F)ccc3c2-c2ccc(Cl)cc2)cc1 [Compound 11]
< 6.30	< 6.30	O=S(=O)(c1ccc(F)c(Cl)c1)c1cnc2cc(F)c(Cl)cc2c1-c1ccccc1F [Compound 194]

pKi (rat mGluR1)	pKi (rat mGluR5)	Compound
< 6.30	> 6.70	N#Cc1cccc(S(=O)(=O)c2cnc3c(F)cccc3c2-c2ccccc2F)c1 [Compound 213]
< 6.30	> 6.70	O=S(=O)(c1cc(Cl)cc(Cl)c1)c1cnc2cc(F)ccc2c1-c1ccc(F)c(F)c1 [Compound 239]
< 6.30	6.30 to 6.70	COc1cccc(-c2c(S(=O)(=O)c3ccc(F)c(F)c3)cnc3ccc(F)cc23)c1 [Compound 151]
< 6.30	6.30 to 6.70	COc1cccc(-c2c(S(=O)(=O)c3ccc(OC)c(Cl)c3)cnc3cc(F)ccc23)c1 [Compound 96]
< 6.30	> 6.70	N#Cc1cc(F)cc(S(=O)(=O)c2cnc3cc(F)ccc3c2-c2ccc(F)c(F)c2)c1 [Compound 231]
> 6.70	> 6.70	N#Cc1cc(S(=O)(=O)c2cnc3cc(Cl)ccc3c2-c2cccc(F)c2)ccc1F [Compound 219]
6.30 to 6.70	> 6.70	O=S(=O)(c1ccc(F)c(Cl)c1)c1cnc2c(F)cccc2c1-c1ccccc1F [Compound 209]
< 6.30	> 6.70	Cc1ccc(S(=O)(=O)c2cnc3ccc(F)cc3c2-c2ccc(Cl)cc2)cc1Cl [Compound 139]
< 6.30	> 6.70	COc1ccc(-c2c(S(=O)(=O)c3ccc(F)c(F)c3)cnc3c(F)cccc23)cc1 [Compound 122]
< 6.30	6.30 to 6.70	O=S(=O)(c1ccc(Cl)cc1)c1cnc2c(Cl)cccc2c1-c1cccc(Cl)c1 [Compound 6]
< 6.30	< 6.30	N#Cc1ccc2c(-c3ccc(F)cc3)c(S(=O)(=O)c3ccc(F)c(F)c3)cnc2c1 [Compound 192]
< 6.30	> 6.70	O=S(=O)(c1cc(F)cc(F)c1)c1cnc2cc(Cl)ccc2c1-c1ccc(Cl)cc1 [Compound 174]
< 6.30	> 6.70	COc1ccc(-c2c(S(=O)(=O)c3ccc(F)cc3)cnc3c(F)cccc23)cc1 [Compound 52]
6.30 to 6.70	6.30 to 6.70	O=S(=O)(c1ccc(F)c(F)c1)c1cnc2cc(F)ccc2c1-c1cccc(Cl)c1 [Compound 97]
< 6.30	> 6.70	N#Cc1cc(F)cc(S(=O)(=O)c2cnc3c(N)cccc3c2-c2cccc(F)c2)c1 [Compound 279]
< 6.30	> 6.70	N#Cc1cc(F)cc(S(=O)(=O)c2cnc3ccccc3c2-c2ccc(Cl)cc2)c1 [Compound 272]
< 6.30	> 6.70	O=S(=O)(c1cc(F)cc(F)c1)c1cnc2cc(Cl)ccc2c1-c1ccc(F)cc1 [Compound 181]
< 6.30	> 6.70	O=S(=O)(c1cc(Cl)cc(Cl)c1)c1cnc2cc(Cl)ccc2c1-c1ccc(F)cc1 [Compound 178]
< 6.30	> 6.70	COc1ccc(-c2c(S(=O)(=O)c3cc(F)cc(F)c3)cnc3c(F)cccc23)cc1 [Compound 117]
6.30 to 6.70	> 6.70	O=S(=O)(c1cc(Cl)cc(Cl)c1)c1cnc2c(F)c(Cl)ccc2c1-c1cccc(Cl)c1 [Compound 252]
